Source: the NIST ThermoML archive (doi:10.1016/j.fluid.2012.12.001)

Test: an = ratio of the nth substance listed
Conditions: for viscosity / mass density: 101 kPa, Liquid; for viscosity: Capillary tube (Ostwald / Ubbelohde) method; for mass density: Vibrating tube method; for surface tension liquid-gas: Capillary rise

CC(O)C(=O)O (centres undefined) [2-hydroxypropanoic acid] + C[N+](C)(C)CCO.[Cl-]
Conditions	mass density [kg/m3]	surface tension liquid-gas [mN/m]	viscosity [mPa·s]
298.15 K, a1 = 1.3	1166.3	–	722.55
298.15 K, a1 = 1.5	1174.9	–	615.62
298.15 K, a1 = 2	1179.3	–	536.28
298.15 K, a1 = 2.5	1184.7	–	494.73
298.15 K, a1 = 3	1189.3	–	437.53
298.15 K, a1 = 3.5	1193.2	–	418.14
298.15 K, a1 = 5	1200.6	–	378.56
298.15 K, a1 = 8	1208	–	341.27
298.15 K, a1 = 10	1211.3	–	321.5
298.15 K, a1 = 15	1173.2	–	226.94
298.2 K, a1 = 2	–	48	–
303.15 K, a1 = 1.3	1163.1	–	508.17
303.15 K, a1 = 1.5	1171.4	–	428.98
303.15 K, a1 = 2	1175.8	–	370.38
303.15 K, a1 = 2.5	1181.1	–	341.17
303.15 K, a1 = 3	1185.6	–	300.21
303.15 K, a1 = 3.5	1189.4	–	285.25
303.15 K, a1 = 5	1196.7	–	254.91
303.15 K, a1 = 8	1204	–	226.58
303.15 K, a1 = 10	1207.1	–	213.35
303.15 K, a1 = 15	1207.1	–	163.42
303.3 K, a1 = 2	–	47.6	–
308.15 K, a1 = 1.3	1160	–	364.59
308.15 K, a1 = 1.5	1168.2	–	304.96
308.15 K, a1 = 2	1172.5	–	263.28
308.15 K, a1 = 2.5	1177.7	–	241.21
308.15 K, a1 = 3	1182.1	–	211.64
308.15 K, a1 = 3.5	1185.9	–	200.01
308.15 K, a1 = 5	1193	–	176.99
308.15 K, a1 = 8	1200.1	–	155.91
308.15 K, a1 = 10	1203	–	146.37
308.15 K, a1 = 15	1203	–	146.37
308.3 K, a1 = 2	–	47.3	–
313.15 K, a1 = 1.3	1157	–	267.49
313.15 K, a1 = 1.5	1165	–	222.55
313.15 K, a1 = 2	1169.3	–	191.68
313.15 K, a1 = 2.5	1174.4	–	174.9
313.15 K, a1 = 3	1178.6	–	153.04
313.15 K, a1 = 3.5	1182.3	–	144.01
313.15 K, a1 = 5	1189.3	–	126.42
313.15 K, a1 = 8	1196.2	–	110.53
313.15 K, a1 = 10	1199	–	103.52
313.15 K, a1 = 15	1199	–	103.52
313.5 K, a1 = 2	–	47	–
318.15 K, a1 = 1.3	1154	–	200.31
318.15 K, a1 = 1.5	1161.9	–	165.87
318.15 K, a1 = 2	1166.2	–	142.7
318.15 K, a1 = 2.5	1171.1	–	129.75
318.15 K, a1 = 3	1175.2	–	113.34
318.15 K, a1 = 3.5	1178.8	–	106.26
318.15 K, a1 = 5	1185.6	–	92.66
318.15 K, a1 = 8	1192.3	–	80.53
318.15 K, a1 = 10	1195	–	75.26
318.15 K, a1 = 15	1195	–	75.26
319.2 K, a1 = 2	–	46.7	–
323.15 K, a1 = 1.3	1151.1	–	152.8
323.15 K, a1 = 1.5	1158.9	–	126.22
323.15 K, a1 = 2	1163	–	108.45
323.15 K, a1 = 2.5	1167.9	–	98.3
323.15 K, a1 = 3	1171.8	–	85.77
323.15 K, a1 = 3.5	1175.3	–	80.16
323.15 K, a1 = 5	1181.9	–	69.53
323.15 K, a1 = 8	1188.4	–	60.12
323.15 K, a1 = 10	1191	–	56.1
323.15 K, a1 = 15	1191	–	56.1
323.5 K, a1 = 2	–	46.5	–
328.15 K, a1 = 1.3	1148.2	–	118.6
328.15 K, a1 = 1.5	1155.8	–	97.77
328.15 K, a1 = 2	1159.9	–	83.99
328.15 K, a1 = 2.5	1164.6	–	75.93
328.15 K, a1 = 3	1168.4	–	66.19
328.15 K, a1 = 3.5	1171.8	–	61.71
328.15 K, a1 = 5	1178.3	–	53.28
328.15 K, a1 = 8	1184.5	–	45.88
328.15 K, a1 = 10	1186.9	–	42.76
328.15 K, a1 = 15	1186.9	–	42.76
328.6 K, a1 = 2	–	46.2	–
333.15 K, a1 = 1.3	1145.3	–	93.55
333.15 K, a1 = 1.5	1152.7	–	76.99
333.15 K, a1 = 2	1156.7	–	66.16
333.15 K, a1 = 2.5	1161.3	–	59.67
333.15 K, a1 = 3	1165	–	52
333.15 K, a1 = 3.5	1168.3	–	48.38
333.15 K, a1 = 5	1174.6	–	41.63
333.15 K, a1 = 8	1180.5	–	35.72
333.15 K, a1 = 10	1182.9	–	33.26
333.15 K, a1 = 15	1182.9	–	33.26
333.2 K, a1 = 2	–	46	–
338.1 K, a1 = 2	–	45.7	–
338.15 K, a1 = 1.3	1142.4	–	74.84
338.15 K, a1 = 1.5	1149.7	–	61.57
338.15 K, a1 = 2	1153.6	–	53.08
338.15 K, a1 = 2.5	1158	–	47.66
338.15 K, a1 = 3	1161.6	–	41.53
338.15 K, a1 = 3.5	1164.8	–	38.58
338.15 K, a1 = 5	1170.9	–	33.1
338.15 K, a1 = 8	1176.6	–	28.33
338.15 K, a1 = 10	1178.8	–	26.35
338.15 K, a1 = 15	1178.8	–	26.35
343.15 K, a1 = 1.3	1139.6	–	60.71
343.15 K, a1 = 1.5	1146.7	–	49.92
343.15 K, a1 = 2	1150.5	–	43.05
343.15 K, a1 = 2.5	1154.8	–	38.64
343.15 K, a1 = 3	1158.2	–	33.66
343.15 K, a1 = 3.5	1161.3	–	31.24
343.15 K, a1 = 5	1167.2	–	26.74
343.15 K, a1 = 8	1172.7	–	22.83
343.15 K, a1 = 10	1174.7	–	21.23
343.15 K, a1 = 15	1174.7	–	21.23
348.15 K, a1 = 1.3	1136.7	–	49.84
348.15 K, a1 = 1.5	1143.7	–	41.01
348.15 K, a1 = 2	1147.4	–	35.4
348.15 K, a1 = 2.5	1151.5	–	31.75
348.15 K, a1 = 3	1154.9	–	27.66
348.15 K, a1 = 3.5	1157.8	–	25.64
348.15 K, a1 = 5	1163.5	–	21.91
348.15 K, a1 = 8	1168.8	–	18.68
348.15 K, a1 = 10	1170.7	–	17.36
348.15 K, a1 = 15	1170.7	–	17.36
353.15 K, a1 = 1.3	1133.9	–	41.4
353.15 K, a1 = 1.5	1140.7	–	34.08
353.15 K, a1 = 2	1144.3	–	29.46
353.15 K, a1 = 2.5	1148.3	–	26.41
353.15 K, a1 = 3	1151.5	–	23.01
353.15 K, a1 = 3.5	1154.2	–	21.32
353.15 K, a1 = 5	1159.8	–	18.2
353.15 K, a1 = 8	1164.8	–	15.49
353.15 K, a1 = 10	1166.7	–	14.38
353.15 K, a1 = 15	1166.7	–	14.38
358.15 K, a1 = 1.3	1131.1	–	34.75
358.15 K, a1 = 1.5	1137.7	–	28.64
358.15 K, a1 = 2	1141.2	–	24.79
358.15 K, a1 = 2.5	1145.1	–	22.22
358.15 K, a1 = 3	1148.1	–	19.37
358.15 K, a1 = 3.5	1150.9	–	17.94
358.15 K, a1 = 5	1156.1	–	15.29
358.15 K, a1 = 8	1160.9	–	13.01
358.15 K, a1 = 10	1162.7	–	12.05
358.15 K, a1 = 15	1162.7	–	12.05
363.15 K, a1 = 1.3	1128.3	–	29.44
363.15 K, a1 = 1.5	1134.7	–	24.31
363.15 K, a1 = 2	1138.1	–	21.08
363.15 K, a1 = 2.5	1141.9	–	18.89
363.15 K, a1 = 3	1144.7	–	16.45
363.15 K, a1 = 3.5	1147.4	–	15.29
363.15 K, a1 = 5	1152.3	–	12.99
363.15 K, a1 = 8	1157.1	–	11.05
363.15 K, a1 = 10	1158.6	–	10.23
363.15 K, a1 = 15	1158.6	–	10.23
